A word on the IC50: it is the concentration at which inhibition is half-maximal. In general, Ki refers to the equilibrium dissociation constant of an inhibitor or competing ligand from its target. Read a low Ki as tighter binding.

For this assay, the target named is T1, Interstitial collagenase (Homo sapiens, UniProt P03956).
T1 sequence (P03956 whole entry): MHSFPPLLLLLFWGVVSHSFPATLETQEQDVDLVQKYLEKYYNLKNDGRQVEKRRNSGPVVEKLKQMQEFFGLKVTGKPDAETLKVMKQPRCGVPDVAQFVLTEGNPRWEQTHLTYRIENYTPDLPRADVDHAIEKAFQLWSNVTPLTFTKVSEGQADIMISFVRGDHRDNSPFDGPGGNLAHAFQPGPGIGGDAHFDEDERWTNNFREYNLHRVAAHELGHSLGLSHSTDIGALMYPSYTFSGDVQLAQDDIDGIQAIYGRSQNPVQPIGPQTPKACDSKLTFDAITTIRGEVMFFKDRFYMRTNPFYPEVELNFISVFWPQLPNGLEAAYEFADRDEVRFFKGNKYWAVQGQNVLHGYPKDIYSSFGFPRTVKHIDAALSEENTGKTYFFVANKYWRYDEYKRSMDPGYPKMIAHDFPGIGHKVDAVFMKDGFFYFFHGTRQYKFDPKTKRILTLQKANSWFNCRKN
The assay is described as follows: Inhibition of human matrix metalloprotease-1.
In turn, `CC#CCOc1ccc(S(=O)(=O)N2CCc3ccccc3C2C(=O)NO)cc1` (stereo not given) came in with an IC50 of 121 nM.

`CCCCOc1ccc(S(=O)(=O)N2CC(N3CCOCC3)CC2C(=O)NO)cc1` (stereo not given) yielded an IC50 of 920 nM.

Consider `CC(C)C(NS(=O)(=O)N1CCC(Oc2ccc(Cl)cn2)CC1)C(=O)NO` (stereo not given), for which the IC50 came to 360 nM.

On to `CNC(=O)C(NC(=O)C(CC(C)C)C(NS(=O)(=O)c1cccc2cccc(=O)n12)C(=O)NO)C(C)(C)C` (stereo not given), for which the IC50 was 1.3 nM.

In turn, `CCOC(=O)[C@H](C)NC(=O)[C@H](CC(C)C)NC(=O)[C@@H](CC(=O)NO)CC(C)C` gave an IC50 of 40 nM.

`O=C(NO)C1CCCCN1S(=O)(=O)N1CCN(c2ccccn2)CC1` (stereo not given) gave a Ki of 423 nM.

The compound `Cc1ccc(COc2ccc(S(=O)(=O)N3CCCC(C)(O)C3C(=O)NO)cc2)c(C)c1` (stereo not given) showed an IC50 of 10 nM.

As for `O=C(CC1(S(=O)(=O)c2ccc(Oc3ccc(Cl)cc3)cc2)CCOCC1)NO`, the affinity, expressed as Ki, was 70 nM.

`O=C(CN(Cc1ccc([N+](=O)[O-])cc1)S(=O)(=O)c1ccc(C(F)(F)F)cc1)NO`: the Ki stood at 3 nM.

`O=C(NO)C1CCCCN1S(=O)(=O)N1CCC(Oc2ccc(-n3ccnc3)cc2)CC1` (stereo not given) yielded a Ki of 224 nM.

The values are drawn from ChEMBL document CHEMBL1148451, “Receptor flexibility in the in silico screening of reagents in the S1' pocket of human collagenase” (J Med Chem, 2004).
